{"source": "patent US20180074045A1", "about": "“SYSTEM AND METHOD FOR HIGH THROUGHPUT SCREENING OF CANCER CELLS” (CANNABICS PHARMACEUTICALS INC, priority 2015, published 2018)", "test_system": "U87MG glioblastoma cells", "assay": "Cell viability imaging, extracts with various THC to CBD ratios", "type": "cell-based, human", "conditions": "extracts with various THC to CBD ratio, adjusted to 5 μM THC, 24 hours, 96-well; FIG. 6", "protocol": "Cells were harvested three days before exposure and seeded (about 50,000-200,000 cells/well) into a 24-well microplate. The medium was replaced in respective culture medium containing 0.5% FBS, and vehicle (DMSO) or cannabis extracts (1-10 μg/ml) were added to the medium for 24-48 hours in duplicates.\nThe effect of cannabinoid compounds on cell viability was measured using high-content screening analysis. For example, differentiation of subpopulations of cells within the same well was analysed by distinguishing: live versus necrotic cells, early apoptotic cells and late apoptotic cells.\nCells were imaged in ImageXpress micro (see FIG. 2), and analyzed using MetaXpress and the Cell Cycle module.\nReference is now made to FIG. 6 showing images of glioblastoma cell lines treated with selected cannabis extracts comprising various THC to CBD ratio. In this study, 10,000 U87MG glioblastoma cells were plated into a 96-well microplate and treated with vehicle (DMSO) or cannabis extracts. It is noted that the extracts were delectated to reach 5 μM THC. Cells were imaged after 24 hours using the ImageXpress micro.", "data": [{"molecule": "C=C(C)[C@@H]1CCC(C)=C[C@H]1c1c(O)cc(CCCCC)cc1O", "note": "[CBD, cannabidiol]", "values": [{"measurement": "U87MG glioblastoma cells viability", "value": "plays a role in reducing U87MG glioblastoma cells viability"}]}]}
